Earlier results in US20170196789A1, “REDUCTION OF ORAL AND EPIDERMAL MALODOR IN HUMANS AND ANIMALS” (priority 2014, published 2017).

Tests used:
[1] = after adhesion to the mucus membrane surface
[2] = in vivo
[3] = chlorhexidine exposure, current animal research

Structure (SMILES): [H]/N=C(\N/C(=N/[H])NCCCCCCNC(=N)NC(=N)Nc1ccc(Cl)cc1)Nc1ccc(Cl)cc1 [chlorhexidine, Chlorhexidine]
- share of the total consumed amount remaining in the oral cavity [1]: Approximately thirty
- absorption through the digestive system [2]: minimal
- toxic and/or cancerous effects in animals [3]: does not demonstrate any evidence of toxic and/or cancerous effects
